The molecules below were run against T1, bradykinin 1 receptor (B1R) of the rat (Rattus norvegicus, UniProt P97583) (assay: Functional investigation on the rat bradykinin 1 receptor (B1R), Ca2+ FLIPR assay in CHO K1 rB1R cells). Conditions: B1R antagonism rat; test substance 10 μM; Ca2+ FLIPR, CHO K1 rB1R cells.
T1 construct: expressed in transfected cells; host or cells: CHO K1 cells
T1 sequence (P97583 1-337): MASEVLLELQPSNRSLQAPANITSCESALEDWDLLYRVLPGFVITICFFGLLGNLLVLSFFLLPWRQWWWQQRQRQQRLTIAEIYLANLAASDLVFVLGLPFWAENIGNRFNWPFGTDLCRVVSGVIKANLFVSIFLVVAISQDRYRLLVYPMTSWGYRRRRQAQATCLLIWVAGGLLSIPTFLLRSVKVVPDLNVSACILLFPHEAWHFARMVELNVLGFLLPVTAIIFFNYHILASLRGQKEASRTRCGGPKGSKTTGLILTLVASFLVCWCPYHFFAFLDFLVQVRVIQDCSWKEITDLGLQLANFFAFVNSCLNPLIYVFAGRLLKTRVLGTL
Assay type: cell-based
How it was run: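 Cells were dye-loaded with Fluo-4 plus probenecid, then test substances added and Ca2+ influx compared with agonist control for % activation. After 10-20 min, EC80 agonist (Lys-Des-Arg9-bradykinin human; Des-Arg9-bradykinin rat) was applied; suppression gave % inhibition and IC50 values.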

| Compound | B1R Ant. r [10 μM] % Inhibition [%] |
| --- | --- |
| COc1cc(C)c(S(=O)(=O)N(C)CCOCC(=O)NC2CCC(C(c3ccccc3)N(C)C)CC2)c(C)c1C (stereo not drawn) [Example 80, N-(4-((dimethylamino) (phenyl)methyl)cyclohexyl)-2-(2-(4-methoxy-N,2,3,6-tetramethylphenylsulfonamido)ethoxy)acetamide] | 6 |

Same assay, conditions: CHO-K1, B1R antagonism rat; test substance 10 μM; Ca2+ FLIPR, CHO K1 rB1R cells; read-out: B1R Ant. r [10 μM] % Inhibition

| Compound | inhibition at 10 µM [%] |
| --- | --- |
| COc1cc(C)c(S(=O)(=O)N2CCN(CCOCC(=O)NC3CCC(C(c4cccc(F)c4)N(C)C)CC3)CC2)c(C)c1C (stereo not drawn) [Example 76, N-(4-((dimethylamino)(3-fluorophenyl)methyl)cyclohexyl)-2-(2-(4-(4-methoxy-2,3,6-trimethylphenylsulfonyl)piperazin-1-yl)ethoxy)acetamide] | -7 |
| CN(C)C(c1ccccc1)C1CCC(CNC(=O)COCCN(C)S(=O)(=O)c2ccc(OC(F)(F)F)cc2)CC1 (stereo not drawn) [Example 53, N-((4-((dimethylamino)(phenyl)methyl)cyclohexyl)methyl)-2-(2-(N-methyl-4-(trifluoromethoxy)phenylsulfonamido)ethoxy)acetamide] | 41 |
| Cc1ccc(S(=O)(=O)N2CCC(OCC(=O)NCC3CCC(C(c4cccs4)N(C)C)CC3)C2)cc1 (stereo not drawn) [Example 68, N-((4-((dimethylamino)(thiophen-2-yl)methyl)cyclohexyl)methyl)-2-(1-tosylpyrrolidin-3-yloxy)acetamide] | 39 |
| CN(C)C(c1cccs1)C1CCC(NC(=O)COCCN(C)S(=O)(=O)c2ccc(Cl)cc2)CC1 (stereo not drawn) [Example 83, 2-(2-(4-chloro-N-methylphenylsulfonamido)ethoxy)-N-(4-((dimethylamino) (thiophen-2-yl)methyl)cyclohexyl)acetamide] | 11 |
| COc1ccc(S(=O)(=O)N2Cc3ccccc3CC2COCC(=O)NCCC2CCC(C(c3cccs3)N(C)C)CC2)cc1 (stereo not drawn) [Example 48, N-(2-(4-((dimethylamino)(thiophen-2-yl)methyl)cyclohexyl)ethyl)-2-((2-(4-methoxyphenylsulfonyl)-1,2,3,4-tetrahydroisoquinolin-3-yl)methoxy)acetamide] | 22 |
| COc1cc(C)c(S(=O)(=O)N(C)CCOCC(=O)NCC2CCC(C(c3cccs3)N(C)C)CC2)c(C)c1C (stereo not drawn) [Example 35, N-((4-((dimethylamino)(thiophen-2-yl)methyl)cyclohexyl)methyl)-2-(2-(4-methoxy-N,2,3,6-tetramethylphenylsulfonamido)ethoxy)acetamide] | 0 |
| CN(C)C(c1cccs1)C1CCC(CCNC(=O)COC2CCN(S(=O)(=O)c3ccc(Cl)cc3)C2)CC1 (stereo not drawn) [Example 66, 2-(1-(4-chlorophenylsulfonyl)pyrrolidin-3-yloxy)-N-(2-(4-((dimethylamino)(thiophen-2-yl)methyl)cyclohexyl)ethyl)acetamide] | 30 |
| COc1cc(C)c(S(=O)(=O)N2CCCC(OCC(=O)NCC3CCC(C(c4cccs4)N(C)C)CC3)C2)c(C)c1C (stereo not drawn) [Example 60, N-((4-((dimethylamino)(thiophen-2-yl)methyl)cyclohexyl)methyl)-2-(1-(4-methoxy-2,3,6-trimethylphenylsulfonyl)piperidin-3-yloxy)acetamide] | 11 |
| COc1ccc(S(=O)(=O)N2CCC(OCC(=O)NCCC3CCC(C(c4cccs4)N(C)C)CC3)C2)cc1OC (stereo not drawn) [Example 94, 2-(1-(3,4-dimethoxyphenylsulfonyl)pyrrolidin-3-yloxy)-N-(2-(4-((dimethylamino)(thiophen-2-yl)methyl)cyclohexyl)ethyl)acetamide] | 21 |
| COc1ccc(S(=O)(=O)N2CCCCC2CCOCC(=O)NC2CCC(C(c3cccc(F)c3)N(C)C)CC2)cc1 (stereo not drawn) [Example 62, N-(4-((dimethylamino)(3-fluorophenyl)methyl)cyclohexyl)-2-(2-(1-(4-methoxyphenylsulfonyl)piperidin-2-yl)ethoxy)acetamide] | 32 |
| COc1cc(C)c(S(=O)(=O)N2CCC(OCC(=O)NCC3CCC(C(c4ccccc4)N(C)C)CC3)C2)c(C)c1C (stereo not drawn) [Example 44, N-((4-((dimethylamino)(phenyl)methyl)cyclohexyl)methyl)-2-(1-(4-methoxy-2,3,6-trimethylphenylsulfonyl)pyrrolidin-3-yloxy)acetamide] | 22 |
| CN(C)C(c1cccs1)C1CCC(CCNC(=O)COCCN(C)S(=O)(=O)c2ccc(Cl)cc2)CC1 (stereo not drawn) [Example 37, 2-(2-(4-chloro-N-methylphenylsulfonamido)ethoxy)-N-(2-(4-((dimethylamino)(thiophen-2-yl)methyl)cyclohexyl)ethyl)acetamide] | 21 |
| COc1cc(C)c(S(=O)(=O)N2CCC(OCC(=O)NCC3CCC(C(c4cccs4)N(C)C)CC3)C2)c(C)c1C (stereo not drawn) [Example 58, N-((4-((dimethylamino)(thiophen-2-yl)methyl)cyclohexyl)methyl)-2-(1-(4-methoxy-2,3,6-trimethylphenylsulfonyl)pyrrolidin-3-yloxy)acetamide] | 5 |
| CN(C)C(c1cccs1)C1CCC(CNC(=O)COCCN(C)S(=O)(=O)c2cccc(C(F)(F)F)c2)CC1 (stereo not drawn) [Example 92, N-((4-((dimethylamino)(thiophen-2-yl)methyl)cyclohexyl)methyl)-2-(2-(N-methyl-3-(trifluoromethyl)phenylsulfonamido)ethoxy)acetamide] | 1 |
| CN(C)C(c1cccc(F)c1)C1CCC(CNC(=O)COCC2CCCCN2S(=O)(=O)c2ccc(Cl)c(Cl)c2)CC1 (stereo not drawn) [Example 87, 2-((1-(3,4-dichlorophenylsulfonyl)piperidin-2-yl)methoxy)-N-((4-((dimethylamino)(3-fluorophenyl)methyl)cyclohexyl)methyl)acetamide] | 9 |
| COc1ccc(S(=O)(=O)N2CCCCC2COCC(=O)NCC2CCC(C(c3cccs3)N(C)C)CC2)c(OC)c1 (stereo not drawn) [Example 49, 2-((1-(2,4-dimethoxyphenylsulfonyl)piperidin-2-yl)methoxy)-N-((4-((dimethylamino)(thiophen-2-yl)methyl)cyclohexyl)methyl)acetamide] | 23 |
| COc1cc(C)c(S(=O)(=O)N2CCN(CCOCC(=O)NCC3CCC(C(c4ccccc4)N(C)C)CC3)CC2)c(C)c1C (stereo not drawn) [Example 61, N-((4-((dimethylamino)(phenyl)methyl)cyclohexyl)methyl)-2-(2-(4-(4-methoxy-2,3,6-trimethylphenylsulfonyl)piperazin-1-yl)ethoxy)acetamide] | 25 |
| Cc1cc(C)c(S(=O)(=O)N2CCC(OCC(=O)NC3CCC(C(c4ccccc4)N(C)C)CC3)C2)c(C)c1 (stereo not drawn) [Example 64, N-(4-((dimethylamino)(phenyl)methyl)cyclohexyl)-2-(1-(mesitylsulfonyl)pyrrolidin-3-yloxy)acetamide] | 16 |
| COc1cc(C)c(S(=O)(=O)N2CCC(OCC(=O)NC3CCC(C(c4cccs4)N(C)C)CC3)C2)c(C)c1C (stereo not drawn) [Example 43, N-(4-((dimethylamino)(thiophen-2-yl)methyl)cyclohexyl)-2-(1-(4-methoxy-2,3,6-trimethylphenylsulfonyl)pyrrolidin-3-yloxy)acetamide] | 21 |

Same assay, conditions: CHO-K1, read-out: B1R Ant. r [10 μM] % Inhibition

| Compound | inhibition at 10 µM [%] |
| --- | --- |
| CN(C)C(c1cccs1)C1CCC(NC(=O)COC2CCCN(S(=O)(=O)c3ccccc3)C2)CC1 (stereo not drawn) [Example 42, N-(4-((dimethylamino)(thiophen-2-yl)methyl)cyclohexyl)-2-(1-(phenylsulfonyl)piperidin-3-yloxy)acetamide] | -17 |

Source: patent publication US8106055B2, “Substituted amide compounds” (Gruenenthal GmbH, priority 2007, dated 2012)
